Results taken from patent US20180298405A1, “METHODS AND COMPOSITIONS TO INCREASE HUMAN SOMATIC CELL NUCLEAR TRANSFER (SCNT) EFFICIENCY BY REMOVING HISTONE H3-LYSINE TRIMETHYLATION, AND DERIVATION OF HUMAN NT-ESC” (CHILDREN'S MEDICAL CENTER CORPORATION, priority 2015, published 2018).
Values joined by “and” are separate entries in the source; they are usually repeats but may differ in a detail not shown here. Equal values may be shown once.

Test system: human SCNT embryos
Assay: Preimplantation development of KDM4A-assisted human SCNT embryos
Format: cell-based
Conditions: for embryos reaching the blastocyst stage: day 6; for embryos developed to the expanded blastocyst stage: day 7
Procedure: All MII stage human oocytes with distinctive 1st polar bodies were enucleated under an inverted microscope equipped with a Poloscope (Oosight®, Cambridge Research & Instrumentation). The enucleation and nuclear donor cell fusion were carried out in the presence of caffeine (1.25 mM). For enucleation, oocytes were pre-incubated in Global HTF medium with Hepes (Life Global) containing 0.5 μg/ml cytochalasin B and caffeine (1.25 mM) for 5 minutes. Then, the spindle complex was removed using a PIEZO actuator (Primetech, Japan). Dermal fibroblast cells resuspended in a drop containing HVJ-E extract (Cosmo Bio, USA) were inserted into the perivitelline space of the enucleated oocytes. The reconstructed oocytes were kept in the manipulation medium containing caffeine (1.25 mM) until the cell fusion was confirmed, and then the reconstructed oocytes were transferred into Global medium 10% SPS, and incubated for 1-1.5 hours before activation. Activation was carried out by applying electropulses (2×50 μs DC pulses, 2.7 kV/cm) in 0.25M d-sorbitol buffer and 6-DMAP (2 mM, 4 hrs) as previously described (Tachibana et al., 2013). The activated embryos were transferred to Global 10% SPS medium supplemented with Trichostatin A (TSA, 10 nM, Sigma) for 12 hrs, then the embryos were transferred to Global 10% FBS without TSA and cultured for up to 7 days in an incubator with atmosphere of 6% CO2/5% O2/89% N2 at 37° C. The culture medium was changed on day 3.
For mRNA injection, the activated SCNT embryos were washed and cultured in Global 10% SPS for 1 hr before the KDM4A mRNA injection. Approximately 10 pl of KDM4A mRNA were injected into the SCNT embryos at 5 hours after activation in Hepes-HTF 10% SPS medium using a PIEZO actuator as described previously (Matoba et al., 2014). More details on donor cell preparation, mRNA preparation, RNA-seq and other procedures can be found in the Supplemental Experimental Procedures.
In vitro transcription was performed as described previously (Matoba et al., 2014). Briefly, full length human KDM4A/JHDM3A cDNA was cloned into a pcDNA3.1 plasmid containing poly(A)83 at the 3′ end of cloning site. The catalytic defective mutant form of KDM4A (H188A) was generated using PrimeSTAR mutagenesis kit (TAKARA # R045A). mRNA was synthesized using the mMESSAGE mMACHINE T7 Ultra Kit (Life technologies # AM1345). The synthesized mRNA was dissolved in nuclease-free water. The concentration of mRNA was measured by NanoDrop ND-1000 spectrophotometer (NanoDrop Technologies). Aliquots of mRNA were stored at −80° C. until use.
Ovarian stimulation was carried out as described previously (Chung et al., 2014). Briefly, a combination of human recombinant follicle-stimulating hormone (rFSH, 225-3001U, Merck) and human menopausal gonadotropin (Menopur 751U, Ferring) were used to stimulate ovary for 9-11 days with GnRH antagonist (Ganirelix acetate, Merck) suppression. Lupron 4 mg was used to mimic the LH surge when 1 or 2 follicles reached 18 mm in diameter. All medications were administered through subcutaneous injections. Transvaginal oocyte retrieval was performed approximately 36 hours after the Lupron injection. The collected COCs were denuded with 5080 IU/ml hyaluronidase (Sigma-Aldrich) within 1-2 hours after retrieval. Then, they were kept in Global medium supplemented with 10% serum protein supplement (SPS; Cooper Surgical) (IVF Online) until use.
The procedures for somatic nuclear donor cell preparation are essentially the same as previously described (Chung et al., 2014). Briefly, the skin explant was mechanically minced and treated with collagenase (type I, 200 unit/ml, Worthington-biochem) in DMEM supplemented with 10 μg/ml penicillin-streptomycin solution to dissociate the skin tissue. […]

[1] = pooled four oocyte donors, per 2-cell
[2] = pooled four oocyte donors, per 2-cell, listed as KDM4A

KDM4A mRNA: in vitro transcribed mRNA of full length human KDM4A/JHDM3A cDNA, an H3K9me3 demethylase (SEQ ID NO: 1)
oocyte donors whose oocytes supported blastocyst formation (four oocyte donors tested, TSA present): all four donors tested supported blastocyst formation | embryos reaching the blastocyst stage [1]: 26.8% and 27% | embryos reaching the blastocyst stage [2]: 26.8% | embryos developed to the expanded blastocyst stage [1]: 14.3% | embryos developed to the expanded blastocyst stage [2]: 14% and 14.3% | developmental rate to 8-cell stage [1]: 71.4% | developmental rate to morula stage [1]: 32% | developmental rate to morula stage [2]: 32.1% | cleavage efficiency to form 2-cell embryos (pooled oocytes of four donors, AMD patient fibroblast donors, mRNA injected 5 h after activation, per 1-cell): 88.9% | increase in hSCNT embryos developing into blastocysts (versus control hSCNT embryos (4.2%)): greater than 20% | increase in embryos reaching expanded blastocyst stage (versus non-treated human SCNT embryos (0%)): 14%
